Test results published in article PMC10458937, “Triose Phosphate Isomerase Structure-Based Virtual Screening and In Vitro Biological Activity of Natural Products as Leishmania mexicana Inhibitors” (Pharmaceutics, 2023).
Where two headings read alike, the source gives them in different places.

How the values were obtained:
[1] = system: L. mexicana MNYC/BZ/62/M379 promastigotes; assay: In vitro leishmanicidal evaluation on promastigotes (MTT), strain M379; type: cell-based; conditions: read-out: Leishmania mexicana IC50 (µM ± SD) M379
Method: (§1) The metabolic activity of the cells was determined using the method of 3-(4,5-Dimethylthiazol-2-yl)-2,5-diphenyltetrazolium bromide (MTT). The half-maximum inhibitory concentration (IC50) was determined using probit analysis. Three independent assays were each performed in triplicate. Biostat software was used to analyze the data for statistically significant data (p < 0.05).

[2] = system: L. mexicana MHOM/MX/2017/UABJO17FCQEPS promastigotes; assay: In vitro leishmanicidal evaluation on promastigotes (MTT), strain FCQEPS; type: cell-based; conditions: 48 h, read-out: Leishmania mexicana IC50 (µM ± SD) FCQEPS
Method: as §1

[3] = Cytotoxicity in murine macrophages (MTT); type: cell-based, mouse; conditions: mouse, 37 °C, read-out: J774.2 Cell Line CC50 (µM ± SD)
Method: (§2) This assay was performed on mouse macrophages from the J774.2 cell line that were recloned from the original ascites and solid tumor J774.1 (according to the fabricant). The cells were cultured in RPMI medium supplemented with 10% SFB, […] penicillin, 100 ug/mL streptomycin, and glutamine (2 mM) at 37 °C and in a 5% CO2 atmosphere. The medium was changed at intervals of every 2 to 3 days. […] Cells in the presence of the maximum concentration of DMSO (0.2%) were included as a negative control. The metabolic activity of the cells was determined using the MTT method. The percentage of cell viability was calculated, and the mean cytotoxic concentration (CC50) was determined using probit analysis. Three independent assays were each performed in triplicate. The selectivity index (SI) was calculated for the promastigotes of L. mexicana and the autochthonous isolate (CC50/IC50).

[4] = system: J774.2 cell line; assay: Cytotoxicity in murine macrophages (MTT); type: cell-based, mouse; conditions: 48 h, 37 °C, read-out: J774.2 Cell Line CC50 (µM ± SD)
Method: as §2

[5] = system: promastigote of both L. mexicana strains; assay: In vitro leishmanicidal activity, promastigote of both L. mexicana strains (abstract); type: cell-based, Leishmania mexicana; conditions: rounded value of the abstract
Method: Promastigotes from the reference strain of L. mexicana (MNYC/BZ/62/M379) and the autochthonous isolate of L. mexicana (MHOM/MX/2017/UABJO17FCQEPS) were used in the in vitro studies. Parasites were preserved in RPMI 1640 supplemented with 10% fetal bovine serum (FBS), 100 U/mL penicillin, 100 ug/mL streptomycin, and glutamine (2 mM). The parasites, in their logarithmic growth phase (5 × 10^5 parasites/mL), were incubated in 96-well plates with the compounds under different concentrations (0.78–100 µM) dissolved in dimethyl sulfoxide (DMSO) in a final volume of 200 µL for 48 h at 26 °C. Parasites in the presence of DMSO (0.2%) were included as a negative control. […] The metabolic activity of the cells was determined using the method of 3-(4,5-Dimethylthiazol-2-yl)-2,5-diphenyltetrazolium bromide (MTT). The half-maximum inhibitory concentration (IC50) was determined using probit analysis. Three independent assays were each performed in triplicate. Biostat software was used to analyze the data for statistically significant data (p < 0.05).

[6] = Leishmania mexicana, promastigotes, strain MNYC/BZ/62/M379, 48 h, 26 °C, MTT
[7] = Leishmania mexicana, promastigotes, strain MHOM/MX/2017/UABJO17FCQEPS, 26 °C, MTT

| Compound | IC50 [1, 6] [µM] | IC50 [2, 7] [µM] | CC50 [4] [µM] | other results |
| --- | --- | --- | --- | --- |
| CNC(=O)c1cc(Oc2ccc(NC(=O)Nc3ccc(Cl)c(C(F)(F)F)c3)cc2)ccn1 [Compound S-7, sorafenib] | – | – | – | IC50 ([1]; Leishmania mexicana, 48 h): 24.9 ± 3.08 µM; IC50 ([2]; Leishmania mexicana): 166 ± 18.1 µM; CC50 at 48 h [3]: 64.9 ± 9.58 µM |
| CC1(C)[C@@H](O)CC[C@]2(C)[C@H]3C(=O)C=C4[C@@H]5C[C@@](C)(C(=O)O)CC[C@]5(C)CC[C@@]4(C)[C@]3(C)CC[C@@H]12 [Compound S-3, glycyrrhetinic acid] | 44.2 ± 5.03 | 145 ± 12.1 | > 100 | – |
| Glucantime | – | – | – | IC50 ([1]; promastigotes, strain MNYC/BZ/62/M379, 48 h, 26 °C, MTT): 134 ± 2.79 µM; IC50 ([2]; promastigotes, strain MHOM/MX/2017/UABJO17FCQEPS, 26 °C, MTT): 125 ± 11.6 µM; IC50 [5]: 133 µM |
| CCc1cc2c(cc1CC)CC(NC[C@H](O)c1ccc(O)c3[nH]c(=O)ccc13)C2 [Compound S-8, indacaterol] | 55.1 ± 2.34 | 56 ± 5.87 | > 100 | IC50 ([5]; Leishmania mexicana): 55 µM |
| C[C@H]1[C@H](C)CC[C@]2(C(=O)O)CC[C@]3(C)C(=CC[C@@H]4[C@@]5(C)CC[C@H](O)C(C)(C)[C@@H]5CC[C@]43C)[C@H]12 [Compound B-3, ursolic acid] | > 200 | 87.2 ± 7.05 | – | CC50 at 48 h ([3]; J774.2 macrophage cells): 49.2 ± 5.53 µM |
